{"source": "paper PMC9688225", "about": "“α-Lipoic Acid Derivatives as Allosteric Modulators for Targeting AMPA-Type Glutamate Receptors’ Gating Modules” (Cells, 2022)", "key": {"[1]": {"target": "T1, GluA1 AMPA receptor subunit (flip isoform) (Homo sapiens, UniProt P42261)", "T1 construct": "expressed in transfected cells; host or cells: HEK293", "T1 sequence (P42261 19-906 isoform P42261-2 limits assumed)": "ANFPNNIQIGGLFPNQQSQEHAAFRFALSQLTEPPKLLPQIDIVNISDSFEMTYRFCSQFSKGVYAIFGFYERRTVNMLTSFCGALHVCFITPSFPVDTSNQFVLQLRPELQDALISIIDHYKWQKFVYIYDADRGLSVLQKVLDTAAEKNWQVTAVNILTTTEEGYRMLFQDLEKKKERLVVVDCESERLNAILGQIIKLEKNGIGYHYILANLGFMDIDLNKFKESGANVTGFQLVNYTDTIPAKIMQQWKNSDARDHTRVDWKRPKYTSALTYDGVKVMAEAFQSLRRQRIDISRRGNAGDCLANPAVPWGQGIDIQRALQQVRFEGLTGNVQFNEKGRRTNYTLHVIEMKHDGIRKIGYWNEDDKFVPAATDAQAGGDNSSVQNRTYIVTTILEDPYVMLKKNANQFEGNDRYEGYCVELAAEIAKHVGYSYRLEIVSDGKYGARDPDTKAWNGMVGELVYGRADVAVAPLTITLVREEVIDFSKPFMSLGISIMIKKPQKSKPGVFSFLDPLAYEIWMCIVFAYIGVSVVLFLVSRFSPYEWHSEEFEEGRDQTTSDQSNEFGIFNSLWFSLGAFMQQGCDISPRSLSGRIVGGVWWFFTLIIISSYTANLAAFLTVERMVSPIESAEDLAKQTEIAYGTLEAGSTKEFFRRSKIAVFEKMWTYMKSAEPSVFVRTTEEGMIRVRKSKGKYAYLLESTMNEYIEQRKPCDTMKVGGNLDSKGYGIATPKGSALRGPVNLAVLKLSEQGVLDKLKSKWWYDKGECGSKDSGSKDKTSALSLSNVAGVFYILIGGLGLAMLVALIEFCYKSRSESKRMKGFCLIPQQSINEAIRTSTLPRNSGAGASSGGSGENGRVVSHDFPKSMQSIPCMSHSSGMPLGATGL", "assay": "Whole-cell patch-clamp electrophysiology, homomeric GluA1 expressed in HEK293 cells", "assay_type": "cell-based", "settings": "for IC50: Hill fit", "procedure": "(§1) Up to 20 μg of high-copy plasmid DNA was prepared using the QIAGEN Plasmid Mini Kit, the tubes were then centrifuged to extract the supernatant containing the plasmid DNA, ethanol was used to wash the DNA pellet, then centrifuged again and the supernatant was carefully removed as to not disturb the pellet, finally, the pellet was air-dried, and the DNA was re-dissolved in a suitable volume of buffer, (our prior study detailed the whole DNA preparation data). The flip isoform was used in all AMPAR subunits used in this investigation. AMPAR subunits were subcloned in pRK and expressed in the human embryonic kidney cells (HEK293) (The HEK293 cell line was obtained from Sigma, Schnelldorf, Germany). IPA (Integrated Patch Amplifier) recorded HEK293 cells 36–48 h after transfection using the patch-clamp method (Sutter Instruments, Novato, CA, USA). A high-speed piezo solution switcher was installed on a double-barreled glass (theta tube) to provide solutions fast, isolate receptor responses from any network influences, and preserve, as much as possible, the postsynaptic protein machinery. Thus, inhibition was measured by comparing the current recorded when glutamate alone was administered to the current observed when glutamate plus the compound of interest was delivered to the same cell. Before administering the α-LA compounds, experiments were conducted to determine the appropriate concentration to be delivered to the cells without harming them. Dichloromethane (12 µM) effect on GluA1 and GluA2 subunits was tested to ensure that it had no effect on AMPA receptor currents (Figure S8). The effect of α-LA compounds on AMPA subunits plateaued at a concentration of 12 µM because LA inhibits AMPA receptors at low concentrations and continues to inhibit them when LA concentrations are increased by 2 µM each interval, as shown in Figure S1. The concentration increased by 2 µM each time to ensure that no cells were harmed. The cells were washed for 20 s between α-LA derivatives (12 µM), and 10 mM glutamate was supplied alone after each α-LA compound to ensure cell health. Data analysis was carried out using Igor Pro7 (Wave Metrics, inc). For both desensitization (τw des) and deactivation rates (τw deact), an exponential fit to the current decline was obtained at 95% of peak to baseline current. The weighted tau (τw) was calculated as τw = (τf × af) + (τs × as), where af and as are the amplitudes of the fast (τf) and slow (τs) exponential components, respectively. Our study detailed the experimental data set.\n(§2) Data are presented as mean ± standard error of the mean (SEM). The number of samples (n = 10) refers to the total number of tested HEK293 cells. Statistical differences between the groups and the wild type were examined by One Way Analysis of Variance (ANOVA), with values of p < 0.05 being considered to indicate statistical significance: (*) p < 0.05, (**) p < 0.01, (***) p < 0.001, ns, not significant. Concentration-response relationships were fitted as composite curves using GraphPad Prism version 6.01 (GraphPad Software, San Diego, CA, USA) to the Hill equation. All results were representative of at least three independent experiments.\n(§3) Figure 2 Suppression of AMPA receptor currents by α-LA compounds. Graphs (a,c,e,g) present AMPA receptor currents (pA) before and after the administration of α-LA derivatives on GluA1, GluA1/2, GluA2, and GluA2/3 subunits. While (b,d,f,h) present the ratio A/AI, where A represents the current caused by 10 mM glutamate alone and AI represents the current induced by glutamate + α-LA (12 µM). The whole-cell current was measured at −60 mV, pH 7.4, and 22 °C. A one way analysis of variance (ANOVA) was performed for comparison: *** p < 0.001; ns, not significant. Ten cells were investigated for each LA compound. All values are shown as mean SEM.\n(§4) Figure 3 The potency of LA compounds against AMPA receptor subunits. […]"}, "[2]": {"target": "T2, GluA1/2 AMPA receptor subunits (flip isoform) (Homo sapiens, UniProt P42261+P42262)", "T2 construct": "expressed in transfected cells; host or cells: HEK293", "T2 sequence (P42261 19-906 isoform P42261-2 limits assumed)": "as above", "T2 sequence (P42262 25-883 isoform P42262-2 limits assumed)": "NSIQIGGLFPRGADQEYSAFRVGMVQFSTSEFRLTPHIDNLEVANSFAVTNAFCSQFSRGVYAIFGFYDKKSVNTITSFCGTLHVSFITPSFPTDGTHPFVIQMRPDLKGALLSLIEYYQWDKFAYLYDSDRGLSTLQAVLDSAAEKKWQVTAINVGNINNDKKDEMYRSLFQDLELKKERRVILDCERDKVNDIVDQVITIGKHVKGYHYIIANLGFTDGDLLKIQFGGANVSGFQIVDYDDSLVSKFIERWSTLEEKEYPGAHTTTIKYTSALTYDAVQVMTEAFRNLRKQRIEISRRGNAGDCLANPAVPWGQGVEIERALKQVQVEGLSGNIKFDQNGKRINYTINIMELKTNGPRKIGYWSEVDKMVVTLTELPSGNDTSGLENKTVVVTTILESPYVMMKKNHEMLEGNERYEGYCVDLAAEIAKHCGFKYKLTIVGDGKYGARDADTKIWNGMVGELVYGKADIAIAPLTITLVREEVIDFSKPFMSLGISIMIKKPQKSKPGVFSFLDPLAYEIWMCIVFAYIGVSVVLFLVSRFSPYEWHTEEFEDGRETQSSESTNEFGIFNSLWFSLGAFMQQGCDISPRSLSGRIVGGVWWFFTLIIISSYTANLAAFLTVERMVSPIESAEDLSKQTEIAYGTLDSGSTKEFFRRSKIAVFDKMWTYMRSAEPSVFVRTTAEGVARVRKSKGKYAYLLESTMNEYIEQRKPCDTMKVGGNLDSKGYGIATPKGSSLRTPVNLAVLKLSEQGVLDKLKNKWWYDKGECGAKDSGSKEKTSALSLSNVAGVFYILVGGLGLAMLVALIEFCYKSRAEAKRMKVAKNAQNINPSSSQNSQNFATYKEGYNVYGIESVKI", "assay": "Whole-cell patch-clamp electrophysiology, heteromeric GluA1/2 expressed in HEK293 cells", "assay_type": "cell-based", "settings": "for IC50: Hill fit", "procedure": "as §1, §2, §3, §4"}, "[3]": {"target": "T3, GluA2 AMPA receptor subunit (flip isoform) (Homo sapiens, UniProt P42262)", "T3 construct": "expressed in transfected cells; host or cells: HEK293", "T3 sequence (P42262 25-883 isoform P42262-2 limits assumed)": "as above", "assay": "Whole-cell patch-clamp electrophysiology, homomeric GluA2 expressed in HEK293 cells", "assay_type": "cell-based", "settings": "for IC50: Hill fit", "procedure": "as §1, §2, §3, §4"}, "[4]": {"target": "T4, GluA2/3 AMPA receptor subunits (flip isoform) (Homo sapiens, UniProt P42262+P42263)", "T4 construct": "expressed in transfected cells; host or cells: HEK293", "T4 sequence (P42262 25-883 isoform P42262-2 limits assumed)": "as above", "T4 sequence (P42263 29-894 isoform P42263-2 limits assumed)": "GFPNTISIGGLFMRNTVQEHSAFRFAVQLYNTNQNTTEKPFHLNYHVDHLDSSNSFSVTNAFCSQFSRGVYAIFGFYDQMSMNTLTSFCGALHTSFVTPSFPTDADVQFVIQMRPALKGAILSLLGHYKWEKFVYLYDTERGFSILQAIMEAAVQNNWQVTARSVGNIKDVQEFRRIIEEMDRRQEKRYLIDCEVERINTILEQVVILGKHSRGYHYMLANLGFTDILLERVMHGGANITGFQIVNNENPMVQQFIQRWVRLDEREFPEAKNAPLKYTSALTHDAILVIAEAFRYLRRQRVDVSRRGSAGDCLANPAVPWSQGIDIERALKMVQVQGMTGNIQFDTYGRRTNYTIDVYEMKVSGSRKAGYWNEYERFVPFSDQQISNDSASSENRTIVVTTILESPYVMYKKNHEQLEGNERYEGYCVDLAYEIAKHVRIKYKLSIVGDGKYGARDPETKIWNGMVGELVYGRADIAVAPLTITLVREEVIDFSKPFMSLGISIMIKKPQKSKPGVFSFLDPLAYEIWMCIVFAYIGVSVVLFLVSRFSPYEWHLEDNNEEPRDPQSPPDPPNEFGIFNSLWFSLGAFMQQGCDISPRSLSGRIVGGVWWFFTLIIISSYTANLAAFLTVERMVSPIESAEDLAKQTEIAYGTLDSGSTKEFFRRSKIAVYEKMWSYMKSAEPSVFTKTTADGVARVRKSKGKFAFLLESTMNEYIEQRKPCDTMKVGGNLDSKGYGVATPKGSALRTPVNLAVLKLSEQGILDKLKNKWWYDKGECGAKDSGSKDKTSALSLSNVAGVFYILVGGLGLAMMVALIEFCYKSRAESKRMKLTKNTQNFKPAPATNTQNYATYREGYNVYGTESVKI", "assay": "Whole-cell patch-clamp electrophysiology, heteromeric GluA2/3 expressed in HEK293 cells", "assay_type": "cell-based", "settings": "for IC50: Hill fit", "procedure": "as §1, §2, §3, §4"}, "[5]": {"tested_on": "AMPA receptor subunits (GluA1, GluA2, GluA1/2, GluA2/3)", "assay": "Whole-cell patch-clamp electrophysiology, summary over the AMPA receptor subunits in HEK293 cells", "assay_type": "cell-based", "procedure": "as §1, §2\nThe levels of inhibition of α-LA and its derivatives attracted our attention to assessing the potency of the compounds in a concentration-dependent manner. […] The concentration−inhibition curves were produced by administering glutamate alone at a concentration of 10 mM, followed by glutamate + α-LA derivatives at varying concentrations (in μM) for every recording point. Afterward, the cells were normalized back by administering glutamate alone. Since the glutamate concentration in the synaptic cleft constantly saturates the receptors, driving the response to a near maximum level, variability occurs because the maximum level changes. […]"}, "HEK293 cells": {"tested_on": "HEK293 cells", "parameters": "method as in PMID 23780308", "settings": "8 µM α-lipoic acid; cited from earlier work"}, "[6]": {"tested_on": "EA.hy926 endothelial cells", "parameters": "method as in PMID 18026819", "settings": "40–80 µM α-lipoic acid; cited from earlier work"}, "[7]": {"settings": "10 mM glutamate + 12 µM compound, −60 mV, pH 7.4, 22 °C, mean ± SEM, n = 10"}, "[8]": {"settings": "10 mM glutamate, 12 µM compound, n = 10"}, "[9]": {"settings": "whole-cell normalized peak amplitude, unit printed in the text, not in Table S6, read-out: IC50"}, "[10]": {"settings": "all AMPA receptor subunits, 12 µM compound"}}, "note": "Read-outs that look alike come from different tables or passages of the source."}
{"smiles": "O=C(O)CCCCC1CCSS1", "note": "(stereo not drawn) [α-LA, alpha-Lipoic acid, reference compound]", "values": [{"measurement": "Amplitude (glutamate + compound)", "setting": "[1]; [7]", "result": "102±14.0", "unit": "pA"}, {"measurement": "A/AI (current with glutamate alone / current with glutamate + compound)", "setting": "[1]; [8]", "result": "9.26±0.6"}, {"measurement": "IC50", "setting": "[1]; read-out: Log IC50 (converted)", "result": 3.55, "unit": "µM"}, {"measurement": "t deact (weighted deactivation time constant)", "setting": "[1]; glutamate + 12 µM compound, glutamate alone 2.2±0.1 ms", "result": "9.1 ± 0.6", "unit": "ms"}, {"measurement": "t des (weighted desensitization time constant)", "setting": "[1]; glutamate + 12 µM compound, glutamate alone 2.3±0.1 ms", "result": "1.3 ± 0.1", "unit": "ms"}, {"measurement": "IC50", "setting": "[1]; [9]", "result": 3.54, "unit": "µM"}, {"measurement": "Amplitude (glutamate + compound)", "setting": "[2]; [7]", "result": "69±10.0", "unit": "pA"}, {"measurement": "A/AI (current with glutamate alone / current with glutamate + compound)", "setting": "[2]; [8]", "result": "9.13±0.9"}, {"measurement": "IC50", "setting": "[2]; read-out: Log IC50 (converted)", "result": 3.89, "unit": "µM"}, {"measurement": "t deact (weighted deactivation time constant)", "setting": "[2]; glutamate + 12 µM compound, glutamate alone 2.5±0.3 ms", "result": "8.9 ± 0.5", "unit": "ms"}, {"measurement": "t des (weighted desensitization time constant)", "setting": "[2]; glutamate + 12 µM compound, glutamate alone 5.3±0.4 ms", "result": "3.3 ± 0.3", "unit": "ms"}, {"measurement": "IC50", "setting": "[2]; [9]", "result": 3.86, "unit": "µM"}, {"measurement": "Amplitude (glutamate + compound)", "setting": "[3]; [7]", "result": "136±22", "unit": "pA"}, {"measurement": "A/AI (current with glutamate alone / current with glutamate + compound)", "setting": "[3]; [8]", "result": "9.09±0.8"}, {"measurement": "IC50", "setting": "[3]; read-out: Log IC50 (converted)", "result": 3.89, "unit": "µM"}, {"measurement": "t deact (weighted deactivation time constant)", "setting": "[3]; glutamate + 12 µM compound, glutamate alone 2.4±0.1 ms", "result": "8.8 ± 0.5", "unit": "ms"}, {"measurement": "t des (weighted desensitization time constant)", "setting": "[3]; glutamate + 12 µM compound, glutamate alone 2.6±0.1 ms", "result": "1.5 ± 0.04", "unit": "ms"}, {"measurement": "IC50", "setting": "[3]; [9]", "result": 3.93, "unit": "µM"}, {"measurement": "Amplitude (glutamate + compound)", "setting": "[4]; [7]", "result": "60±11.0", "unit": "pA"}, {"measurement": "A/AI (current with glutamate alone / current with glutamate + compound)", "setting": "[4]; [8]", "result": "8.93±1.0"}, {"measurement": "IC50", "setting": "[4]; read-out: Log IC50 (converted)", "result": 3.98, "unit": "µM"}, {"measurement": "t deact (weighted deactivation time constant)", "setting": "[4]; glutamate + 12 µM compound, glutamate alone 2.4±0.3 ms", "result": "8.6 ± 0.7", "unit": "ms"}, {"measurement": "t des (weighted desensitization time constant)", "setting": "[4]; glutamate + 12 µM compound, glutamate alone 2.7±0.3 ms", "result": "1.6 ± 0.09", "unit": "ms"}, {"measurement": "IC50", "setting": "[4]; [9]", "result": 4.01, "unit": "µM"}, {"measurement": "increase of the rate of AMPA receptor deactivation (τw deact)", "setting": "[5]; [10]", "result": "about 4 fold"}, {"measurement": "reduction in the rate of desensitization (τw des)", "setting": "[5]; [10]", "result": 2, "unit": "fold"}, {"measurement": "increase of the ratio A/AI", "setting": "[5]; all AMPA receptor subunits, glutamate alone vs glutamate + compound", "result": 9, "unit": "fold"}, {"measurement": "IC50", "setting": "[5]; over GluA1, GluA1/2, GluA2, GluA2/3, read-out: approximate IC50 against AMPA receptor subunits", "result": "3.5 to 4", "unit": "µM"}, {"measurement": "harm to the cells", "setting": "HEK293 cells", "result": "without noticing any harm"}, {"measurement": "toxicity to the cells", "setting": "[6]", "result": "without causing toxicity"}]}
